Results published in US20130338221A1, “PHOTOAGING PROTECTIVE COMPOSITION CONTAINING CHROMENES DERIVED FROM SARGASSUM HORNERI” (PUKYONG NATIONAL UNIVERSITY INDUSTRY-UNIVERSITY C, priority 2012, published 2013).

What was measured:
[1] = system: human dermal fibroblasts (HDF cells); experiment: Protective effect on viability of UV-A irradiated dermal fibroblasts (MTT assay); format: cell-based
Experimental: HDF cells were seeded in 24-well plate at a density of 1×10^5 cells/well with DMEM containing 10% FBS, 2 mM gluramine and 100 μg/ml penicillin-streptomycin at 37° C. humidified atmosphere of 5% CO2. After incubation for 24 h, the cells were exposed to UV-A energy at the range of 6 J/cm^2 (365 nm UV-A light source, Bio-Sun lamp, Vilber Lourmat, Marine, France) in 200 μl of phosphate buffered saline (PBS) to each well. After UV-A irradiation, the cells were incubated for 24 h in serum-free DMEM.
Viability level of HDF cell was determined through ability of mitochondria capable of converting 3-(4,5-dimethylthiazol-2-yl)-2,5-diphenyl tetrazolium bromide (MTT) into a insoluble formazan product. Dermal fibroblasts were grown in 96-well plates at a density of 1×10^4 cells/well. After 24 h, after irradiating UV-A (6 J/cm^2) to the cell, the cells were cultured with the chromenes sample or without the chromenes sample at 37° C. humidified atmosphere of 5% CO2. The supernatant medium was removed, and the cells were incubated with 100 μl of MTT (1 mg/ml) for 4 h. The unconvertived MTT was removed, dimethyl sulfoxide (DMSO) was added, and then cell viability was measured at the absorbance at 540 nm using a microplate reader (Tecan Austria GmbH, Austria) to determine the amount of formazan in a cell. Relative cell viability was quantified as a percentage compared to the control group.

[2] = system: intracellular reactive oxygen species (ROS) in HDF cells; experiment: Intracellular ROS generation by UV-A (DCFH-DA); format: cell-based, human
Experimental: Intracellular formation of reactive oxygen species (ROS) was assessed using oxidation sensitive dye 2′,7′-dichlorofluorescin diacetate (DCFH-DA) as the substrate. HDF cells growing in fluorescence microtiter 96-well plates for 24 h were exposed to UV-A (6 J/cm^2). The exposed cells were loaded with 20 μM DCFH-DA dissolved in PBS and incubated for 30 min in the dark at 37° C. humidified atmosphere of 5% CO2. […] The formation of 2′,7′-dichlorofluorescein (DCF) dissolved in PBS due to oxidation of DCFH in the presence of various ROS was read after every 20 min at the excitation wavelength (Ex) of 485 nm and the emission wavelength (Em) of 535 nm using a fluorescence microplate reader (Tecan Austria GmbH, Salzburg, Austria).
The cell system was labeled with DCFH-DA and followed by UV-A irradiation.

[3] = system: cell membrane proteins of HDF cells; experiment: Cell membrane protein oxidation (carbonyl groups, DNPH) after UV-A; format: cell-based, human
Experimental: The amount of carbonyl groups in cell membrane proteins was determined to assess the cellular protein oxidation level that is a standard of determining the degree of cell membrane damage. HDF cells were co-cultured with various concentrations of compounds for 24 h after 6 J/cm^2 of UV-A irradiation. Cell were washed three times with PBS and lysed in lysis buffer without reducing agents (25 mM Tris-HCl, pH 7.8, 2 mM EDTA, 180 mM NaCl and 1% Triton X-100). Aliquots of cell lysates were separately incubated then trichloroacetic acid (400 μl from 20% trichloroacetic acid) was added to each reaction mixture and solubilized proteins were precipitated by centrifugation at 3,000 rpm for 15 minutes. Precipitated protein was resuspended in 2% 2,4-dinitrophenylhydrazine (2 mM HCl) and incubated at room temperature for 20 min. The protein was precipitated again with 20% trichloroacetic acid and the pellet was washed three times with ethanol:ethylacetate (1:1 v/v) solution. The pellet was then dissolved in 6 M guanidin hydrochloride (500 μl) and incubated for 15 min at 37° C. After centrifugation at 1,500 g for 5 min, absorbance of the supernatant was recorded against a complementary blank at 370 nm using a GENios® fluorescence microplate reader (Tecan Austria GmbH, Salzburg, Austria).

[4] = system: membrane lipid hydroperoxides of HDF cells; experiment: Cell membrane lipid peroxidation (DPPP) after UV-A; format: cell-based, human
Experimental: Intracellular lipid hydroperoxide levels were determined by the fluorescence probe, diphenyl-1-pyrenylphosphine (DPPP). HDF cells were seeded into fluorescence microtiter 96-well plates at a density of […] using serum-free media. After 80% confluence, HDF cells were treated with various concentrations of compounds and incubated for 24 h after 6 J/cm^2 of UV-A irradiation. Then, cells were washed three times with PBS and labeled with 13 μM DPPP (dissolved in DMSO) for 24 h at 37° C. in the dark. DPPP oxide fluorescence intensity was measured after 24 h at the excitation wavelength (Ex) of 361 nm and the emission wavelength (Em) of 380 nm using a GENios® fluorescence microplate reader (Tecan Austria GmbH, Salzburg, Austria).
The levels of lipid hydroperoxides in the presence and absence of chromenes were examined by using specific fluorescence probe, DPPP (FIG. 16). DPPP has been used as a sensitive method for measuring lipid hydroperoxides of cell membranes, since it successfully incorporates into membranes and oxidizes hydroperoxides to emit DPPP-oxide fluorescence.

[5] = system: intracellular glutathione (GSH) in HDF cells; experiment: Intracellular GSH level (mBBr) after UV-A; format: cell-based, human
Experimental: Intracellular glutathione (GSH) level in intact cells was determined using monobromobimane as a thiol-staining reagent. HDF cells were seeded into fluorescence microtiter 96-well plates at a density of 5×10^3 cells/well. Cell were washed three times with PBS and treated with various concentrations of the compounds after 6 J/cm^2 of UV-A irradiation and incubated for 30 min. 0.04 mM of Monobromobimane was added to cells and staining was carried out for 24 h at 37° C. in the dark. After staining fluorescence intensity was measured (excitation and emission: 360 and 465 nm) using a GENios® fluorescence microplate reader (Tecan Austria GmbH, Salzburg, Austria).
GSH is the most abundant low molecular weight thiol inside mammalian cells, and changes in glutathione level directly reflect intracellular redox alterations. To investigate the relationship between the increased ROS and the level of antioxidant materials in cells, the intracellular GSH level was measured.

TNF-α [6] = experiment: TNF-α secretion ELISA in UV-A irradiated HDF; format: cell-based, human
Experimental: (§1) For measuring various collagen degradation MMP and inflammatory cytokine, collagen content in a cell, an enzyme-linked immunosorbent assay was used after UV-A irradiation. After irradiating HDF cell with UV-A, the cells were incubated with various concentrations of sample. After 24 h, the supernatants of the HDF cells were collected, and used for testing MMP, cytokine, hyaluronan, and collagen. For testing, Biotrak™ ELISA kits (Amersham Pharmacia Biosciences, England, UK), procollagen ELISA kit (Takara Bio Inc), and Hyaluronan ELISA kits (R&D system) were used according to the manufacturer's instructions.
(§2) To investigate effect of chromenes on the cytokine production in UV-A irradiated dermal fibroblasts, inflammatory cytokine production was measured using ELISA assay (FIGS. 18 to 20).

IL-1β = IL-1β secretion ELISA in UV-A irradiated HDF; format: cell-based, human
Experimental: as §1, §2

IL-6 = IL-6 secretion ELISA in UV-A irradiated HDF; format: cell-based, human
Experimental: as §1, §2

hyaluronan = experiment: Hyaluronan secretion ELISA in UV-A irradiated fibroblasts; format: cell-based, human
Experimental: as §1
Then, we evaluated effect of chromenes on hyaluronan secretion by UV-A irradiation.

MMP-1 = MMP-1 secretion ELISA in UV-A irradiated HDF; format: cell-based, human
Experimental: as §1
(§3) Collagens are known to as main component of the skin and degraded by collagenase MMPs. Among MMPs, MMP-1, MMP-8 and MMP-13 are family of collagenases which are capable of degrading triple-helical fibrillar collagens. […] Therefore, inhibitory effect of chromenes on collagenase MMP secretions from the UV-A irradiated dermal fibroblasts was determined using ELISA assay.

MMP-13 = MMP-13 secretion ELISA in UV-A irradiated HDF; format: cell-based, human
Experimental: as §1, §3

type I procollagen = experiment: Type I procollagen ELISA in UV-A irradiated HDF; format: cell-based, human
Experimental: as §1
Alterations of collagen have been thought to be a cause of the clinical skin changes of photoaging. The dermis contains predominantly type I collagen (85-90%) and the precursor molecules of collagen are called procollagen, which is synthesized in the form of polypeptide chains of type I collagen in dermal fibroblasts. UV irradiation induces the activity and synthesis of MMP in human skin, which mediate collagen destruction that results in much connective tissue damage. Therefore, we also studied the effects of chromenes on the level of type I procollagen in UVA-irradiated cultured dermal fibroblasts. The procollagen level was determined in the culture medium by ELISA assay.

TNF-α [7] = experiment: TNF-α mRNA and protein expression (RT-PCR, Western blot) in UV-A irradiated HDF; format: cell-based, human
Experimental: Total cellular RNA was isolated using Trizol reagent (Invitrogen Co., CA, USA). The 2 μg of isolated RNA was reverse transcribed into cDNA using oligo-(dT) primer (Promega, Madison, Wis., USA). Target cDNA was amplified using the forward and reverse primer sequences. The amplification was carried out at 95° C. for 45 sec, 60° C. for 50 sec and 72° C. for 60 sec for cycles. After amplification step, extension process proceeded consecutively at 72° C. for 5 min. […] Gels were stained with 1 mg/ml of EtBr and photographed by UV illumination using AlphaEase® gel image analysis software (Alpha Innotech., San Leandro, Calif., USA).
Whole cells were lysed in RIPA buffer (Sigma-Aldrich Corp., St. Louis, USA). After centrifugation, total protein amount of cell lysates was determined using Lowry method (BioRad Laboratories, Hercules, Calif., USA). […] All primary monoclonal antibodies were diluted with TBS-T at 1:1000 ratio. Bound antibodies were detected by horseradish peroxidase-conjugated secondary antibodies for 1 h at room temperature and the immunoreactive proteins were detected using a chemiluminescent ECL assay kit (Amersham Pharmacia Biosciences, England, UK) according to the manufacturer's instructions. Western blot bands were visualized using a LAS3000® Luminescent image analyzer (Fujifilm Life Science, Tokyo, Japan).

fibronectin = experiment: Immunofluorescent labeling of fibronectin after UV-A; format: cell-based, human; conditions: 10 μM
Experimental: (§4) Immunostaining is used to determine the subcellular distribution and organization of proteins. Cells were grown in 6-well plates, Aspirate liquid, then cover cells to a depth of 2-3 mm with 4% formaldehyde in PBS for 15 min at room temperature. Aspirate fixative, rinse three times in PBS for 5 minutes each then incubated primary antibody and for overnight at 4° C. Rinse three times in PBS for 5 min each. Incubate specimen in fluorochrome-conjugated secondary antibody diluted in Antibody Dilution Buffer for 1-2 h at room temperature in dark and incubated with Hoechest 33342 (Sigma-Aldrich Co. MO, USA). For best results, examine specimens immediately using appropriate excitation wavelength. For long-term storage, store slides flat at 4° C. protected from light. The image of HDF cells were collected using Leica invented microscopy (DM IRB) with 40× objective and a digital CCD camera (CTR 6000, Leica, Wetzlar, Germany) under fluorescence.
(§5) It has been reported that the exposure to UV-A causes degradation of collagen and fibronectin in the extracellular matrix. […] Results were evaluated through the images of the labeling assay under a fluorescent microscope with the previously mentioned excitation and emission values.

hyaluronan synthase 1 = experiment: Immunofluorescent labeling of hyaluronan synthase 1 after UV-A; format: cell-based, human; conditions: 10 μM
Experimental: as §4, §5

HDF cells = experiment: Phototoxicity determination (MTT, compounds present during UV-A); format: cell-based, human; conditions: retinoic acid 5 μM during UV-A
Experimental: HDF cells are exposed to UV-A light in the presence of chromenes and retinoic acid in concentrations of 5, 10, and 20 μM and 1, 2, and 5 μM, respectively. After 24 h, cell viability was determined by MTT assay.
In order to determine whether compounds have phototoxic effect, the cell viability of dermal fibroblasts was evaluated using MTT assay. Cells were co cultured with compounds and retinoic acid during UV-A irradiation. […] Therefore, the concentration of 1 μM retinoic acid was selected as a positive control for further experiment.

[8] = A and B 5 to 20 μM, C 1 to 10 μM
[9] = Homo sapiens, HDF, retinoic acid 1 μM
[10] = Homo sapiens, retinoic acid 1 μM

SMILES: CC(C)=CCC/C(=C/CC/C(C)=C/CC[C@]1(C)CCc2cc(O)cc(C)c2O1)C(=O)O [Compound A, sargachromenol]
- Fibroblasts protection (%) ([1]; samples 10 μM): 37.25%
- ROS scavenging (%) ([2]; samples 10 μM): 38.58%
- Inhibition of protein oxidation (%) ([3]; samples 10 μM): 30.57%
- Inhibition of lipid peroxidation (%) ([4]; samples 10 μM): 15.63%
- Enhancement of GSH level (%) ([5]; samples 10 μM): 23.17%
- TNF-α secretion (in words) (TNF-α [6]; [8]): slightly reduced
- Inhibition of TNF-α secretion (%) (TNF-α [6]; samples 10 μM): 20.59%
- IL-1β secretion (in words) (IL-1β; [8]): slightly reduced
- Inhibition of IL-1β secretion (%) (IL-1β; samples 10 μM): 10.07%
- IL-6 secretion (in words) (IL-6; [8]): slightly reduced
- Inhibition of IL-6 secretion (%) (IL-6; samples 10 μM): 11.11%
- Hyaluronan (%) (hyaluronan; samples 10 μM): 16.67%
- MMP-1 secretion (in words) (MMP-1; dose-dependent): significantly reduced
- MMP-1 inhibition (%) (MMP-1; samples 10 μM): 27.76%
- MMP-13 secretion (in words) (MMP-13; dose-dependent): significantly reduced
- MMP-13 inhibition (%) (MMP-13; samples 10 μM): 23.82%
- Procollagen (%) (type I procollagen; samples 10 μM): 115.79%
- Inhibition of TNF-α expression (TNF-α [7]): failed to show significant activity
- Protection of fibronectin decomposition (fibronectin): not as significant as compound C
- Hyaluronan synthase 1 amount (hyaluronan synthase 1): reduced

SMILES: CC1=C(/C=C/C(C)=C/C=C/C(C)=C/C(=O)O)C(C)(C)CCC1 [Retinoic acid, retinoic acid, reference compound]
- Fibroblasts protection (%) ([1]; retinoic acid 1 μM): 12.21%
- ROS scavenging (%) ([2]; retinoic acid 1 μM): 46.60%
- inhibition at 1 µM [3, 9]: 55.4%
- inhibition at 1 µM [4, 9]: 21.6%
- Enhancement of GSH level (%) ([5]; retinoic acid 1 μM): 15.85%
- inhibition at 1 µM (TNF-α [6]; [10]): 24.4%
- inhibition at 1 µM (IL-1β; [10]): 6.71%
- inhibition at 1 µM (IL-6; [10]): 14.1%
- IL-6 level after treatment (IL-6; at the same concentration (1 μM), UV-A irradiated HDF): 119 pg/mL
- Hyaluronan (%) (hyaluronan; retinoic acid 1 μM): 31.11%
- inhibition at 1 µM (MMP-1; [10]): 30.7%
- inhibition at 1 µM (MMP-13; [10]): 37.1%
- Type I procollagen secretion level (type I procollagen; 1 μM, culture medium, UV-A irradiated HDF): 60 ng/mL
- Procollagen (%) (type I procollagen; retinoic acid 1 μM): 57.89%
- Phototoxicity (HDF cells): a little phototoxic effect
